Target: T1, human orexin type 2 receptor (Homo sapiens, UniProt O43614)
T1 construct: expressed in transfected cells
T1 sequence (O43614 1-444): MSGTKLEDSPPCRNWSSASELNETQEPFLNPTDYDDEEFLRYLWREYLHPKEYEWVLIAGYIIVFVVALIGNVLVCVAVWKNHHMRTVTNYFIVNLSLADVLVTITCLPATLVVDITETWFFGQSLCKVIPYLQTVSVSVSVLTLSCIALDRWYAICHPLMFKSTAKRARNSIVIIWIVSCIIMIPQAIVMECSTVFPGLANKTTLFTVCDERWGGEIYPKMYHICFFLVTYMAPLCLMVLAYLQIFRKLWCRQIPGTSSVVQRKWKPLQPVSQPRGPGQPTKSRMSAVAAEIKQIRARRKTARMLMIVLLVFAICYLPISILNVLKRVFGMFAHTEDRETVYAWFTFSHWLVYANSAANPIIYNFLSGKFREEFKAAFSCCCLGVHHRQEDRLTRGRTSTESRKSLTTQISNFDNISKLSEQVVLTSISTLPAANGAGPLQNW
Assay: Measurement of orexin type 2 receptor agonist activity (calcium fluorescence, Fluo-4 AM, FDSS)
Format: cell-based
Details: compound at 3 μM; CHO cells forcibly expressing human OX2 receptor; DMSO = 0%, orexin A (human) 10 nM = 100%
Description: Experimental Example 1: Obtainment of Cell Stably Expressing Human Orexin Type 2 Receptor (hOX2R)
To obtain a cell clone stably expressing human orexin type 2 receptor, human orexin type 2 receptor cDNA was inserted into pcDNA3.1(+) plasmid vector (Invitrogen), and a plasmid DNA for expression of human orexin type 2 receptor (pcDNA3.1(+)/hOX2R) was cloned. The plasmid DNA was introduced into CHO-dhfr cell by an electroporation method, and human orexin type 2 receptor expressing clone cells were obtained by limiting dilution method by using G418 drug resistance as a selection marker.
Experimental Example 2: Measurement of Orexin Type 2 Receptor Agonist Activity
CHO cells forcibly expressing human OX2 receptor were seeded in each well of 384 well black transparent bottom plate (BD Falcon) at 7,500 cells/well, and cultured for one day in a 5% CO2 incubator at 37° C. After removal of the medium in the cell plate, assay buffer A containing a calcium indicator (HBSS (Thermo Fisher Scientific), 20 mM HEPES (Thermo Fisher Scientific), 0.1% BSA (Wako Pure Chemical Industries, Ltd. or Sigma-Aldrich), 2.5 μg/mL Fluo-4 AM (DOJINDO Chemical), 0.08% Pluronic F127 (DOJINDO Chemical), 1.25 mM probenecid (DOJINDO Chemical)) was added at 30 μL/well. The plate was stood for 30 min in a 5% CO2 incubator at 37° C., and further stood at room temperature for 30 min. A test compound prepared by diluting with assay buffer B (HBSS, 20 mM HEPES, 0.1% BSA) was added at 10 μL/well, and the fluorescence value was measured by FDSSμCELL (Hamamatsu Photonics K.K.) every one sec for 1 min, and thereafter every two sec for 1 min 40 sec. The activity (%) of the test compound was calculated assuming that variation in the fluorescence value when DMSO was added instead of the test compound was 0%, and variation in the fluorescence value when orexin A (human) (PEPTIDE INSTITUTE, INC.) was added at the final concentration of 10 nM was 100%. The activity of each compound at the concentration of 3 μM was shown below.

Compound | OX2R agonist activity (3 μM, %)
O=C(N[C@H]1CCN(C(=O)C2CCC2)[C@H]1Cc1cccc(-c2cccc(F)c2)c1)C1CCCO1 (relative stereo) [Example 5, N-{cis-1-(cyclobutanecarbonyl)-2-[(3′-fluoro[1,1′-biphenyl]-3-yl)methyl]pyrrolidin-3-yl}oxolane-2-carboxamide] | 92%
CC(F)(F)C(=O)N[C@H]1CCN(C(=O)C2CCC2)[C@H]1Cc1cccc(-c2cccc(F)c2)c1 (relative stereo) [Example 8, N-{cis-1-(cyclobutanecarbonyl)-2-[(3′-fluoro [1,1′-biphenyl]-3-yl)methyl]pyrrolidin-3-yl}-2,2-difluoropropanamide] | 66%
O=C(CO)N[C@H]1CCN(C(=O)C2CCC2)[C@H]1Cc1cccc(-c2cccc(F)c2)c1 (relative stereo) [Example 6, N-{cis-1-(cyclobutanecarbonyl)-2-[(3′-fluoro[1,1′-biphenyl]-3-yl)methyl]pyrrolidin-3-yl}-2-hydroxyacetamide] | 60%
CN(C)C(=O)C(=O)N[C@H]1CCN(C(=O)N2CCC2)[C@H]1Cc1csc(-c2cccc(F)c2)n1 [Example 19, N^~2^~-[(2S,3S)-1-(azetidine-1-carbonyl)-2-{[2-(3-fluorophenyl)-1,3-thiazol-4-yl]methyl}pyrrolidin-3-yl]-N^~1,N^~1^~- dimethylethanediamide] | 89%
COC1(C(=O)N[C@H]2CCN(C(=O)N3CCC3)[C@H]2Cc2csc(-c3cccc(F)c3)n2)CC1 [Example 26, N-[(2S,3S)-1-(azetidine-1-carbonyl)-2-{[2-(3-fluorophenyl)-1,3-thiazol-4-yl]methyl}pyrrolidin-3-yl]-1-methoxycyclopropane-1-carboxamide] | 67%
CN(C)C(=O)C(=O)N[C@H]1CCN(C(=O)N2CCC2)[C@H]1Cc1cccc(-c2cccc(F)c2)c1 [Example 30, N^~2^~-{(2S,3S)-1-(azetidine-1-carbonyl)-2-[(3′-fluoro[1,1′-biphenyl]-3-yl)methyl]pyrrolidin-3-yl}-N^~1^~,N^~1^~-dimethylethanediamide] | 101%

— US11655241B2, “Heterocyclic compound and use thereof” (Takeda Pharmaceutical Company Limited, priority 2018, dated 2023)
